Results as given in US9315510B2, “Method and application of unsymmetrically meso-substituted porphyrins and chlorins for PDT” (Biolitec Pharma Marketing LTD, priority 2008, dated 2016).

Assays:
[1] = test system: human colon adenocarcinoma cell line HT29; assay: Cell tests in the HT 29 cell line: photosensitizing activity, XTT cell viability; assay type: cell-based
Experimental: The photosensitizing activity was determined in the human colon adenocarcinoma cell line HT29. The HT29 cell lines were grown in DMEM (cc-pro GmbH) supplemented with 10% heat-inactivated fetal calf serum (FCS, cc-pro GmbH), 1% penicillin (10000 IU) and streptomycin (10000 μg/ml, cc-pro GmbH). Cells were kept as a monolayer culture in a humidified incubator (5% CO2 in air at 37° C.
(§1) A photosensitizer stock solution (2 mM) was performed in DMSO and was kept in the dark at 4° C. Further dilution was performed in RPMI 1640 medium without phenol red supplemented with 10% FCS to reach a final photosensitizer concentration of 2 or 10 μM, respectively.
(§2) 2·10^4 cells/ml were seeded in micro plates (2·10^5 cells/well). Cells were incubated with fresh medium (RPMI without phenol red) containing 10% FCS with 2 or 10 μM of the photosensitizer for 24 h before light exposure. […]
(§3) The cell viability was assessed by the XTT assay. […]
(§4) The absorbance of the samples was measured with a spectrophotometer (Bio-Kinetics Reader EL312 e; Bio-Tek Instruments Inc.) at a wavelength of 490 nm. In order to measure reference absorbance (to measure non-specific readings) a wavelength of 630-690 nm was used.

[2] = test system: rabbit synoviocyte cell line HIG-82; assay: Cell tests in the rabbit synoviocyte cell line HIG-82: photodynamic activity, XTT cell viability; assay type: cell-based; details: HIG82, 2 or 10 μM photosensitizer, 24 h incubation, 652 nm diode laser, 50 J/cm^2
Experimental: (§5) The mouse monocytes-macrophages cell line J774A.1 and the rabbit synoviocyte cell line HIG-82 were grown in DMEM (cc-pro GmbH) supplemented with 10% heat-inactivated fetal calf serum (FCS, cc-pro GmbH), 1% penicillin (10000 IU) and streptomycin (10 000 μg/ml, cc-pro GmbH). Cells were kept as a monolayer culture in a humidified incubator (5% CO2 in air at 37° C.).
as §1, §2, §3, §4

[3] = test system: mouse monocytes-macrophages cell line J774A.1; assay: Cell tests in the mouse macrophage cell line J774A.1: photodynamic activity, XTT cell viability; assay type: cell-based; details: 2 or 10 μM photosensitizer, 24 h incubation, 652 nm diode laser, 50 J/cm^2
Experimental: as §5, §1, §2, §3, §4

| Molecule | photodynamic activity [2] | photodynamic activity [3] | melting point [°C] | also measured |
| --- | --- | --- | --- | --- |
| 5,15-Bis-(4-carboxyphenyl)-10,20-dihexyl-7,8-dihydroxy-7,8-chlorin | very strong photodynamic activity | very strong photodynamic activity | – | photodynamic activity (photo toxicity) ([1]; HT29, 2 or 10 μM photosensitizer, 24 h incubation, 652 nm diode laser, 100 mW/cm^2 (50 J/cm^2), XTT 24 h after irradiation): very strong photodynamic activity; dark toxicity (DT) and photo toxicity ([1]; HT 29 cell line, cell culture experiments (FIG. 4A)): excellent properties |
| CCCCCCCCCCCCCc1c2nc(c(CCCCCCCCCCCCC)c3ccc([nH]3)c(-c3cccc(O)c3)c3nc(c(-c4cccc(O)c4)c4ccc1[nH]4)C=C3)C=C2 [5,10-Bis-(3-hydroxyphenyl)-15,20-bis-(tridecyl)-porphyrin] | – | – | 113 | – |
| CCCCCCc1c2nc(c(CCCCCC)c3ccc([nH]3)c(-c3ccc(C(=O)OC)cc3)c3nc(c(-c4ccc(C(=O)OC)cc4)c4ccc1[nH]4)C=C3)C=C2 [5,10-Dihexyl-15,20-bis-(4-methoxycarbonylphenyl)-porphyrin] | – | – | 131 | – |
| CCCCCCCCCCCCCc1c2nc(c(-c3cccc(O)c3)c3ccc([nH]3)c(CCCCCCCCCCCCC)c3nc(c(-c4cccc(O)c4)c4ccc1[nH]4)C=C3)C=C2 [5,15-Bis-(3-hydroxyphenyl)-10,20-bis-(tridecyl)-porphyrin] | – | – | 133 | – |
| CCCCCCc1c2nc(c(-c3ccc(C(=O)OC)cc3)c3ccc([nH]3)c(CCCCCC)c3nc(c(-c4ccc(C(=O)OC)cc4)c4ccc1[nH]4)C=C3)C=C2 [5,15-Dihexyl-10,20-bis-(4-methoxycarbonylphenyl)-porphyrin] | – | – | 238 | – |
| CCCCCCc1c2nc(c(-c3ccc(C(=O)O)cc3)c3ccc([nH]3)c(-c3ccc(C(=O)O)cc3)c3nc(c(CCCCCC)c4ccc1[nH]4)C(O)C3O)C=C2 (stereo not shown) [5,20-Bis-(4-carboxyphenyl)-10,15-dihexyl-7,8-dihydroxy-7,8-chlorin] | very strong photodynamic activity | very strong photodynamic activity | – | – |
